US8211899B2, “Artificial nucleic acid bases and their use in base pairing natural nucleic acid bases” (Inter-University Research Institute Corporation National …, priority 2005, dated 2012)
Read-outs that look alike come from different tables or passages of the source.

What was measured:
1-methylthymine (T) = test: test of base pair formation by UV absorbance change versus mixing ratio; type: binding; details: mixture with T, total 7.5 mmol/L, mol ratio 0:10 to 10:0, anhydrous DMSO, 25° C., 12 hr
Method: The test of base pair formation was carried out in the following way. The concentration of the mixture of PPT and one of respective N-methylated natural nucleic acid bases (1-methylcytosine (herein after, referred to as “C”), 1-methylthymine (hereinafter, referred to as “T”). 9-methyladenine (hereinafter, referred to as “A”), and 9-methylguanine (hereinafter, referred to as “G”)) was kept constant at 7.5 mmol/L and the ratio (mol ratio) of the mixture was varied from 0:10 to 10:0. The mixture was dissolved at 25° C. in anhydrous dimethyl sulfoxide (DMSO), which had been removed oxygen by freezing-degas method, dissolved argon gas, mixed with DMSO solution of substrates prepared before hand, and allowed to leave for overnight (12 hr.). Then, the change of absorbance in ultraviolet wavelength region was measured according to the following conditions: • (1) The measuring equipment, JASCO V-550 SERIAL NO. C02951260; • (2) The thermal controller, JASCO PSC-498T; • (3) The cell, GL Science Type: AB20-SQ-0.1 (Optical path is 0.1 mm); • (4) The cell adopter, CAS-10-1; • (5) The measured wavelength region, 200-350 nm.
The absorbance of substrates is proportional to a mixing ratio of the substrates (Beer's law) in the case of no interaction between substrates.
For comparison, the base pair formation was examined for A and T, and G and T similarly to Example 3.

[1] = solubility test in solvents at 1 to 100 mM; type: physicochemical; details: for solubility: warmed to 50° C. and cooled to 27° C.; for solubility in water and organic solvents: water and various organic solvents
Method: The solubility of PPT obtained in Example 1 was examined. For comparison, the solubility of a PPT derivative, wherein R is H in chemical formula I (hereinafter, referred to as “PPT(H)”). For the solubility test, each solvent listed in Table I was used, and the concentration of solute was 1 to 100 mM. The solution with respective concentrations was warmed once to 50° C. and cooled to 27° C. The solution with residues was referred to as “insoluble”, in the contrast the solution without residues was referred to as “soluble”. The concentration of the buffer was 100 mM and the pH was 7.0.

9-methylguanine (G) = test: test of base pair formation by UV absorbance change versus mixing ratio; type: binding; details: mixture with G, total 7.5 mmol/L, mol ratio 0:10 to 10:0, anhydrous DMSO, 25° C., 12 hr
Method: (§1) The test of base pair formation was carried out in the following way. […] The mixture was dissolved at 25° C. in anhydrous dimethyl sulfoxide (DMSO), which had been removed oxygen by freezing-degas method, dissolved argon gas, mixed with DMSO solution of substrates prepared before hand, and allowed to leave for overnight (12 hr.). Then, the change of absorbance in ultraviolet wavelength region was measured according to the following conditions: • (1) The measuring equipment, JASCO […]IAL NO. C02951260; • (2) The thermal controller, JASCO PSC-498T; • (3) The cell, GL Science Type: AB20-SQ-0.1 (Optical path is 0.1 mm); • (4) The cell adopter, CAS-10-1; • (5) The measured wavelength region, 200-350 nm. The absorbance changed in accordance with the mixing ratios. Plot of the absorbance change versus to mixing ratios at a wavelength, where the absorbance change was observed, are shown in FIG. 2. The absorbance of substrates is proportional to a mixing ratio of the substrates (Beer's law) in the case of no interaction between substrates.

1-methylcytosine (C) = test: as above; type: binding; details: mixture with C, total 7.5 mmol/L, mol ratio 0:10 to 10:0, anhydrous DMSO, 25° C., 12 hr
Method: as §1

9-methyladenine (A) = test: as above; type: binding; details: mixture with A, total 7.5 mmol/L, mol ratio 0:10 to 10:0, anhydrous DMSO, 25° C., 12 hr
Method: as §1

[2] = TBE buffer 100 mM pH 7.0, concentration 1 mM
[3] = TBE buffer 100 mM pH 7.0, concentration 100 mM
[4] = phosphate buffer 100 mM pH 7.0, concentration 1 mM
[5] = phosphate buffer 100 mM pH 7.0, concentration 100 mM
[6] = DMF, 27 °C, organic solvent or mixture, thermodynamic from solid, DMF, concentration 1 mM, read-out: solubility
[7] = DMF, 27 °C, organic solvent or mixture, thermodynamic from solid, DMF, concentration 100 mM, read-out: solubility
[8] = DMSO, 27 °C, organic solvent or mixture, thermodynamic from solid, DMSO, concentration 1 mM, read-out: solubility
[9] = DMSO, 27 °C, organic solvent or mixture, thermodynamic from solid, DMSO, concentration 100 mM, read-out: solubility
[10] = TBE buffer, 27 °C, pH 7, aqueous buffer, thermodynamic from solid, TBE buffer 100 mM pH 7.0, concentration 1 mM, read-out: solubility
[11] = TBE buffer, 27 °C, pH 7, aqueous buffer, thermodynamic from solid, TBE buffer 100 mM pH 7.0, concentration 100 mM, read-out: solubility
[12] = methanol, 27 °C, organic solvent or mixture, thermodynamic from solid, methanol, concentration 1 mM, read-out: solubility
[13] = methanol, 27 °C, organic solvent or mixture, thermodynamic from solid, methanol, concentration 100 mM, read-out: solubility
[14] = phosphate buffer, 27 °C, pH 7, aqueous buffer, thermodynamic from solid, phosphate buffer 100 mM pH 7.0, concentration 1 mM, read-out: solubility
[15] = phosphate buffer, 27 °C, pH 7, aqueous buffer, thermodynamic from solid, phosphate buffer 100 mM pH 7.0, concentration 100 mM, read-out: solubility
[16] = water, 27 °C, water, thermodynamic from solid, water, concentration 1 mM, read-out: solubility
[17] = water, 27 °C, water, thermodynamic from solid, water, concentration 100 mM, read-out: solubility

Row | solubility ([1]; DMF, concentration 1 mM) | solubility ([1]; DMF, concentration 100 mM) | solubility ([1]; DMSO, concentration 1 mM) | solubility ([1]; DMSO, concentration 100 mM) | solubility [1, 2] | solubility [1, 3] | solubility ([1]; methanol, concentration 1 mM) | solubility ([1]; methanol, concentration 100 mM) | solubility [1, 4] | solubility [1, 5] | solubility ([1]; water, concentration 1 mM) | solubility ([1]; water, concentration 100 mM) | Structure (SMILES) | base pair formation: deviation of absorbance plot from the linear line by Beer's law (1-methylthymine (T)) | other results
1 | – | – | – | – | – | – | – | – | – | – | – | – | Cn1cnc2c(N)ncnc21 [A, 9-methyladenine] | deviation from the linear line | –
2 | S (S: soluble) | Ins (Ins: insoluble) | S (S: soluble) | Ins (Ins: insoluble) | S (S: soluble) | Ins (Ins: insoluble) | S (S: soluble) | Ins (Ins: insoluble) | S (S: soluble) | Ins (Ins: insoluble) | S (S: soluble) | Ins (Ins: insoluble) | O=c1[nH]c(=O)c2c(=O)[nH]c(=O)n(CCO)c2[nH]1 [CH2CH2OH] | – | –
3 | S (S: soluble) | S (S: soluble) | S (S: soluble) | S (S: soluble) | S (S: soluble) | Ins (Ins: insoluble) | S (S: soluble) | Ins (Ins: insoluble) | S (S: soluble) | Ins (Ins: insoluble) | S (S: soluble) | Ins (Ins: insoluble) | C=CCn1c(=O)[nH]c(=O)c2c(=O)[nH]c(=O)[nH]c21 [CH2CH═CH2] | – | –
4 | S (S: soluble) | Ins (Ins: insoluble) | S (S: soluble) | Ins (Ins: insoluble) | S (S: soluble) | S (S: soluble) | S (S: soluble) | Ins (Ins: insoluble) | S (S: soluble) | S (S: soluble) | S (S: soluble) | S (S: soluble) | O=C(O)Cn1c(=O)[nH]c(=O)c2c(=O)[nH]c(=O)[nH]c21 [CH2COOH] | – | –
5 | – | – | – | – | – | – | – | – | – | – | – | – | Cn1cnc2c(=O)[nH]c(N)nc21 [G, 9-methylguanine] | no deviation from the linear line | –
6 | – | – | – | – | – | – | – | – | – | – | – | – | O=c1[nH]c(=O)c2c(=O)[nH]c(=O)[nH]c2[nH]1 [PPT(H), pyrimido [4,5-d]pyrimidine-2,4,5,7-tetraone, reference compound] | – | solubility [1, 6]: < 100 mM; solubility [1, 7]: < 100 mM; solubility [1, 8]: < 100 mM; solubility [1, 9]: < 100 mM; solubility [1, 10]: < 100 mM; solubility [1, 11]: < 100 mM; solubility [1, 12]: < 100 mM; solubility [1, 13]: < 100 mM; solubility [1, 14]: < 100 mM; solubility [1, 15]: < 100 mM; solubility in water and organic solvents [1]: insoluble; solubility in water and organic solvents ([1]; listed as unsubstituted form of pyrimido [4,5-d] pyrimidine -2,4,5,7-tetraone): extremely low; solubility [1, 16]: < 100 mM; solubility [1, 17]: < 100 mM
7 | – | – | – | – | – | – | – | – | – | – | – | – | CC(C)(C)[Si](OCCn1c(=O)[nH]c(=O)c2c(=O)[nH]c(=O)[nH]c21)(c1ccccc1)c1ccccc1 [PPT, 1-[2-(t-butyl-diphenyl-silyloxy)-ethyl]-1H, 8H-pyrimido [4,5-d]pyrimidine-2,4,5,7-tetraone] | large deviation from the linear line | solubility [1, 6]: > 1 mM; solubility [1, 7]: > 1 mM; solubility [1, 8]: > 1 mM; solubility [1, 9]: > 1 mM; solubility [1, 10]: > 1 mM; solubility [1, 11]: < 100 mM; solubility [1, 12]: > 1 mM; solubility [1, 13]: < 100 mM; solubility [1, 14]: > 1 mM; solubility [1, 15]: < 100 mM; solubility [1, 16]: > 1 mM; solubility [1, 17]: < 100 mM; base pair formation: deviation of absorbance plot from the linear line by Beer's law (9-methylguanine (G)): large deviation from the linear line; base pair formation: deviation of absorbance plot from the linear line by Beer's law (1-methylcytosine (C)): large deviation from the linear line; base pair formation: deviation of absorbance plot from the linear line by Beer's law (9-methyladenine (A)): large deviation from the linear line
